{
  "source": "patent US9670191B2",
  "about": "“Pyridyl-and pyrimidinyl-substituted pyrrole-, thiophene- and furane-derivatives as kinase inhibitors” (priority 2006, dated 2017)",
  "note": "Where a name gives a salt, the structure may show the parent alone.",
  "data": [
    {"molecular_target": "Cdc7/Dbf4 (Homo sapiens (Human), UniProt O00311)", "sequence (O00311 whole entry, looked up, species assumed)": "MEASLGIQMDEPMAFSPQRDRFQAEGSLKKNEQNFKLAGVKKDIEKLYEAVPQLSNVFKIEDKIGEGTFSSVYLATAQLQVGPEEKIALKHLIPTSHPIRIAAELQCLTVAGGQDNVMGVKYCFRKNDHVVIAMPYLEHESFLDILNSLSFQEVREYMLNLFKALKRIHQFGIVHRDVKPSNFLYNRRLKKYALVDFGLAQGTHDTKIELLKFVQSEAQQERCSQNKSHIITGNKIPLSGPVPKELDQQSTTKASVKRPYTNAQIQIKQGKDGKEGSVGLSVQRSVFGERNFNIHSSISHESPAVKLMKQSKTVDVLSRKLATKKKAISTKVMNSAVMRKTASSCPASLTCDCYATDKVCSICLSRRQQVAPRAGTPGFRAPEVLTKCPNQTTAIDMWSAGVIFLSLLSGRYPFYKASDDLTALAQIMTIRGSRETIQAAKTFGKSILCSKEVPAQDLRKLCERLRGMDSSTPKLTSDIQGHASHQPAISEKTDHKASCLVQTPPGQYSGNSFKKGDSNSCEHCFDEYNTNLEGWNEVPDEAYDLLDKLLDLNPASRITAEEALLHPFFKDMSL", "sequence (Q9UBU7 whole entry partner, looked up, species assumed)": "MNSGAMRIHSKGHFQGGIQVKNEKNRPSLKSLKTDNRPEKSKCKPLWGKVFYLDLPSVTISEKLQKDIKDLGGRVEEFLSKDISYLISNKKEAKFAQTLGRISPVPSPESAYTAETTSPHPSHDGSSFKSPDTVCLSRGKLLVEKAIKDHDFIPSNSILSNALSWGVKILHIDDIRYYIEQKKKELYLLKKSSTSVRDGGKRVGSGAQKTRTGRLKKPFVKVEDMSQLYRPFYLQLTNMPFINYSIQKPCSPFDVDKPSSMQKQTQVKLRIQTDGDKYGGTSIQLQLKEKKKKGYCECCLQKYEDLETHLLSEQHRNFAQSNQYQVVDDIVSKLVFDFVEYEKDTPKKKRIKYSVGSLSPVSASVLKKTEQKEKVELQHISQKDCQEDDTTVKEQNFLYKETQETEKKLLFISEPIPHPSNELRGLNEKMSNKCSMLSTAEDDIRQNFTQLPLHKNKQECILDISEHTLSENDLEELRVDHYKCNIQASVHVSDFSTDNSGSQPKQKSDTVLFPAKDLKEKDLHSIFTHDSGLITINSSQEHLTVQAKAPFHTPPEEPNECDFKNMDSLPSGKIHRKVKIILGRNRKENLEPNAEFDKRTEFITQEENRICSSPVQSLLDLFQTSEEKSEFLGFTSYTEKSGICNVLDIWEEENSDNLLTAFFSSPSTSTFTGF", "assay": "Inhibition assay of Cdc7/Dbf4 activity (Dowex resin capture, 33P-ATP, MCM2 substrate)", "type": "biochemical", "details": "not given", "experimental": "(§1) Inhibition Assay of Cdc7 Activity\n(§2) The inhibiting activity of putative Cdc7 inhibitors and the potency of selected compounds is determined through a method of assay based on the use of Dowex resin capture technology.\n(§3) The assay consists of the transfer of radioactivity labeled phosphate moiety by the kinase to an acceptor substrate. The resulting 33P-labeled product is separated from unreacted tracer, transferred into a scintillation cocktail and light emitted is measured in a scintillation counter.\n(§4) The inhibition assay of Cdc7/Dbf4 activity is performed according to the following protocol.\n(§5) The MCM2 substrate is trans-phosphorylated by the Cdc7/Dbf4 complex in the presence of ATP traced with γ^33-ATP. The reaction is stopped by addition of Dowex resin in the presence of formic acid. Dowex resin particles capture unreacted γ^33-ATP and drag it to the bottom of the well while ^33P phosphorylated MCM2 substrate remains in solution. The supernatant is collected, transferred into Optiplate plates and the extent of substrate phosphorylation is evaluated by β counting.\n(§6) The inhibition assay of Cdc7/Dbf4 activity was performed in 96 wells plate according to the following protocol.\n(§7) The solvent for test compounds contained 3% DMSO (final concentration 1%) • 10 μl substrate MCM2 (6 μM final concentration), a mixture of cold ATP (2 μM final concentration) and radioactive ATP (1/5000 molar ratio with cold ATP). • 10 μl enzyme (Cdc7/Dbf4, 2 nM final concentration) that started the reaction. The buffer of the reaction consisted in 50 mM HEPES pH 7.9 containing 15 mM MgCl2, 2 mM DTT, 3 uM NaVO3, 2 mM glycerophosphate and 0.2 mg/ml BSA. • After incubation for 60 minutes at room temperature, the reaction was stopped by adding to each well 150 μl of Dowex resin in the presence of 150 mM formic acid. After another 60 min incubation, 50 μL of suspension were withdrawn and transferred into 96-well OPTIPLATEs containing 150 μl of MicroScint 40 (Packard); after 5-10 minutes shaking the plates were read for 1 min in a Packard TOP-Count radioactivity reader.\n(§8) Experimental data were analyzed by the computer program Assay Explorer using the four parameter logistic equation: y=bottom+(top−bottom)/(1+10^((log IC50−x)*slope)) where x is the logarithm of the inhibitor concentration, y is the response; y starts at bottom and goes to top with a sigmoid shape.", "units": {"IC50": "nM"}, "values": [
      {"molecule": "NC(=O)c1cc(-c2ccncc2F)[nH]c1-c1ccccc1", "note": "[Compound E1, 5-(3-Fluoro-pyridin-4-yl)-2-phenyl-1H-pyrrole-3-carboxylic acid amide]", "IC50": "1 to 100"},
      {"molecule": "CCn1c(-c2ccnc(N)n2)cc(C(N)=O)c1-c1ccccc1", "note": "[Compound L1, 5-(2-Amino-pyrimidin-4-yl)-1-ethyl-2-phenyl-1H-pyrrole-3-carboxylic acid amide]", "IC50": "1 to 100"},
      {"molecule": "COc1ccc(-c2[nH]c(-c3ccncc3)cc2C(N)=O)cc1", "note": "[Compound A12, 2-(4-Methoxy-phenyl)-5-pyridin-4-yl-1H-pyrrole-3-carboxylic acid amide hydrochloride]", "IC50": "1 to 100"},
      {"molecule": "Nc1nccc(-c2cc(C(=O)NCc3ccccc3)c(-c3ccccc3)[nH]2)n1", "note": "[Compound M3, 5-(2-Amino-pyrimidin-4-yl)-2-phenyl-1H-pyrrole-3-carboxylic acid benzylamide]", "IC50": "1 to 100"},
      {"molecule": "COc1ccccc1-c1[nH]c(-c2ccncc2)cc1C(N)=O", "note": "[Compound A10, 2-(2-Methoxy-phenyl)-5-pyridin-4-yl-1H-pyrrole-3-carboxylic acid amide hydrochloride]", "IC50": "1 to 100"},
      {"molecule": "NC(=O)c1cc(-c2ccncc2)[nH]c1-c1cccc(F)c1", "note": "[Compound A3, 2-(3-Fluoro-phenyl)-5-pyridin-4-yl-1H-pyrrole-3-carboxylic acid amide]", "IC50": "1 to 100"},
      {"molecule": "NC(=O)c1cc(-c2ccncc2)[nH]c1-c1ccccc1F", "note": "[Compound A2, 2-(2-Fluoro-phenyl)-5-pyridin-4-yl-1H-pyrrole-3-carboxylic acid amide hydrochloride]", "IC50": "1 to 100"},
      {"molecule": "CC(C)NC(=O)c1cc(-c2ccnc(N)n2)[nH]c1-c1ccccc1", "note": "[Compound M2, 5-(2-Amino-pyrimidin-4-yl)-2-phenyl-1H-pyrrole-3-carboxylic acid isopropylamide]", "IC50": "1 to 100"},
      {"molecule": "COc1cccc(-c2[nH]c(-c3ccncc3)cc2C(N)=O)c1", "note": "[Compound A11, 2-(3-Methoxy-phenyl)-5-pyridin-4-yl-1H-pyrrole-3-carboxylic acid amide]", "IC50": "1 to 100"},
      {"molecule": "NC(=O)c1cc(-c2ccncc2)[nH]c1-c1ccccc1", "note": "[Compound A1, 2-Phenyl-5-pyridin-4-yl-1H-pyrrole-3-carboxylic acid amide]", "IC50": "1 to 100"},
      {"molecule": "Cc1cccc(-c2[nH]c(-c3ccncc3)cc2C(N)=O)c1", "note": "[Compound A8, 5-Pyridin-4-yl-2-m-tolyl-1H-pyrrole-3-carboxylic acid amide]", "IC50": "1 to 100"},
      {"molecule": "Cc1ccc(-c2[nH]c(-c3ccncc3)cc2C(N)=O)cc1", "note": "[Compound A9, 5-pyridin-4-yl-2-p-tolyl-1H-pyrrole-3-carboxylic acid amide]", "IC50": "1 to 100"},
      {"molecule": "NC(=O)c1cc(-c2ccnc(N)n2)[nH]c1-c1ccsc1", "note": "[Compound G1, 5-(2-amino-pyrimidin-4-yl)-2-thiophen-3-yl-1H-pyrrole-3-carboxylic acid amide]", "IC50": "1 to 100"},
      {"molecule": "NC(=O)c1cc(-c2ccncc2)[nH]c1-c1ccc(Br)cc1", "note": "[Compound A6, 2-(4-Bromo-phenyl)-5-pyridin-4-yl-1H-pyrrole-3-carboxylic acid amide hydrochloride]", "IC50": "1 to 100"},
      {"molecule": "NC(=O)c1cc(-c2ccnc(N)n2)[nH]c1-c1ccccc1", "note": "[Compound F1, 5-(2-Amino-pyrimidin-4-yl)-2-phenyl-1H-pyrrole-3-carboxylic acid amide]", "IC50": "1 to 100"},
      {"molecule": "NC(=O)c1cc(-c2ccncc2)[nH]c1-c1ccc(F)cc1", "note": "[Compound A4, 2-(4-Fluoro-phenyl-5-pyridin-4-yl-1H-pyrrole-3-carboxylic acid amide hydrochloride]", "IC50": "1 to 100"},
      {"molecule": "NC(=O)c1cc(-c2ccncc2)[nH]c1-c1cccc(Br)c1", "note": "[Compound A5, 2-(3-Bromo-phenyl-5-pyridin-4-yl-1H-pyrrole-3-carboxylic acid amide hydrochloride]", "IC50": "1 to 100"},
      {"molecule": "NC(=O)c1cc(-c2ccnc(Nc3ccccc3)n2)[nH]c1-c1ccccc1", "note": "[Compound H1, 2-Phenyl-5-(2-phenylamino-pyrimidin-4-yl)-1H-pyrrole-3-carboxylic acid amide]", "IC50": "1 to 100"}
    ]},
    {"molecular_target": "Cdc7/Dbf4 (Homo sapiens (Human), UniProt O00311)", "assay": "Inhibition assay of Cdc7/Dbf4 activity (Dowex resin capture, 33P-ATP, MCM2 substrate)", "type": "biochemical", "details": "MCM2 substrate 6 μM, ATP 2 μM, enzyme 2 nM, 60 minutes at room temperature; read-out: IC50 values on Cdc7/Dbf4", "experimental": "as §1, §2, §3, §4, §5, §6, §7, §8", "units": {"IC50": "nM"}, "values": [
      {"molecule": "Cc1ccccc1-c1[nH]c(-c2ccncc2)cc1C(N)=O", "note": "[Compound A7, 5-Pyridin-4-yl-2-o-tolyl-1H-pyrrole-3-carboxylic acid amide]", "IC50": "1 to 100"},
      {"molecule": "Nc1nccc(-c2cc(C(=O)NCC3CCCCC3)c(-c3ccccc3)[nH]2)n1", "note": "[Compound M4, 5-(2-Amino-pyrimidin-4-yl)-2-phenyl-1H-pyrrole-3-carboxylic acid cyclohexylmethyl-amide]", "IC50": "1 to 100"},
      {"molecule": "NC(=O)c1cc(-c2ccncc2)[nH]c1-c1ccoc1", "note": "[Compound C2, 2-Furan-3-yl-5-pyridin-4-yl-1H-pyrrole-3-carboxylic acid amide]", "IC50": "1 to 100"},
      {"molecule": "NC(=O)c1cc(-c2ccncc2)[nH]c1-c1ccsc1", "note": "[Compound C1, 5-Pyridin-4-yl-2-thiophen-3-yl-1H-pyrrole-3-carboxylic acid amide]", "IC50": "1 to 100"},
      {"molecule": "Cc1cccc(-c2[nH]c(-c3ccncc3)cc2C(N)=O)c1C", "note": "[Compound A20, 2-(2,3-Dimethyl-phenyl)-5-pyridin-4-yl-1H-pyrrole-3-carboxylic acid amide]", "IC50": "1 to 100"}
    ]}
  ]
}
